Experimental data as given in PubChem BioAssay (NCI).
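Here, GI50 denotes the concentration required for 50% inhibition of growth. TGI is the concentration that stops growth completely.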

Tests used:
Test in all cases: growth of human tumour cells (NCI), 384-well format
A549 NSCLC = tested on: A549 NSCLC
HCT-116 colon = tested on: HCT-116 colon
HL-60(TB) leukemia = tested on: HL-60(TB) leukemia
KM12 colon = tested on: KM12 colon
LOX IMVI melanoma = tested on: LOX IMVI melanoma
MALME-3M melanoma = tested on: MALME-3M melanoma
MDA-MB-435 melanoma = tested on: MDA-MB-435 melanoma
NCI-H460 NSCLC = tested on: NCI-H460 NSCLC
OVCAR-3 ovarian = tested on: OVCAR-3 ovarian
OVCAR-8 ovarian = tested on: OVCAR-8 ovarian
SF-539 CNS = tested on: SF-539 CNS
SNB-75 CNS = tested on: SNB-75 CNS
UO-31 renal = tested on: UO-31 renal

C=CC(=O)Nc1cccc(Oc2nc(Nc3ccc(N4CCN(C)CC4)cc3)nc3ccsc23)c1 showed a GI50 (A549 NSCLC) of 1640 nM, a TGI (A549 NSCLC) of 3.5 µM and a GI50 (HCT-116 colon) of 1680 nM. For the same compound, the TGI (HCT-116 colon) was 3.09 µM, the GI50 (HL-60(TB) leukemia) was 1600 nM and the TGI (HL-60(TB) leukemia) was 2970 nM. It also gave a GI50 (KM12 colon) of 1590 nM, a TGI (KM12 colon) of 3.12 µM and a GI50 (LOX IMVI melanoma) of 1810 nM. It also gave a TGI (LOX IMVI melanoma) of 3.22 µM, a GI50 (MALME-3M melanoma) of 1760 nM and a TGI (MALME-3M melanoma) of 3.16 µM. The GI50 (MDA-MB-435 melanoma) was 1780 nM, the TGI (MDA-MB-435 melanoma) was 3.2 µM and the GI50 (NCI-H460 NSCLC) was 1620 nM. For the same compound, the TGI (NCI-H460 NSCLC) was 3.03 µM, the GI50 (OVCAR-3 ovarian) was 923 nM and the TGI (OVCAR-3 ovarian) was 2200 nM. It also gave a GI50 (OVCAR-8 ovarian) of 1590 nM, a TGI (OVCAR-8 ovarian) of 3 µM and a GI50 (SF-539 CNS) of 1750 nM. It also gave a TGI (SF-539 CNS) of 3.15 µM, a GI50 (SNB-75 CNS) of 1350 nM and a TGI (SNB-75 CNS) of 2740 nM. For the same compound, the GI50 (UO-31 renal) was 1390 nM and the TGI (UO-31 renal) was 2700 nM.
